Key:
THP-1 cells [1] = assay: Trans-well chemotaxis assay of THP-1 cells; assay type: cell-based, human
Experimental: For chemo-attraction of monocytes, RANTES (100 ng/ml), MIP-1α (50 ng/ml) or MCP-1 (50 ng/ml) were dissolved in 0.5% fetal bovine serum(FBS)/RPMI-1640 medium and placed at the lower chamber of QCM™ 24-well migration assay plate (Corning-Costar; 5 μm pores). For chemo-attraction of CD4+ cells, 0.5% FBS/RPMI-1640 solution containing RANTES (100 ng/ml) and SDF-1α (50 ng/ml) was used, using the same plate setting. Migration assay was conducted by seeding 300,000 treated cells in the upper chamber, followed by incubation of 3-4 hours. Subsequently, the number of cells which migrated to the medium in the lower compartment was determined by FACS.
Data are mean f SD from 4 experiments in triplicates, normalized to untreated cells. **, p<0.001.

[2] = test system: Human monocytes (CD14+ cells); assay: In vitro cell migration (trans-well chemotaxis) assay of human monocytes; assay type: cell-based
Experimental: Following incubation, cells were loaded to the upper chamber and allowed to migrate for 3.5 hours towards 0.5% fetal bovine serum/RPMI-1640 medium supplemented with recombinant human MCP-1 and RANTES (50 ng/ml each).
In order to further ascertain the significance of ERK1/2 phosphorylation and MEK1/2 phosphorylation to monocyte chemotaxis, the effect of the RAF inhibitor GW5074, which reduces MEK and ERK phosphorylation, on monocyte chemotaxis was determined in a trans-well migration assay using a combination of MCP-1 ([…]) and RANTES (70 ng/ml) as attractant. Monocytes were pre-treated with 5 μM GW5074 for 30 minutes prior to seeding in the migration chamber.
For this purpose, monocytes from healthy donors were pre-incubated for 30 min with either solvent (0.005% ethanol/PBS), phosphatidylcholine (PC; 5 μg/ml), partially oxidized PAPC (24 h oxidation; 40 μg/ml) or PGPC (5 μg/ml), and allowed to migrate towards recombinant human MCP-1 (CCL2; ligand for CCR2) and RANTES (CCL5; ligand for CCR1, CCR3, CCR5, US28) as attractants (50 ng/ml each). […]

[3] = Plasma concentration of VB-201 (Liquid Chromatography-Tandem Mass Spectrometry); assay type: in vivo, mouse; settings: oral
Experimental: (§1) In this model, injection of thioglycollate to the peritoneal cavity induces a “sterile” inflammatory response recruiting peripheral monocytes to the peritoneum, where they differentiate into macrophages (Li, Y. M., et al., J. Immunol. Methods. 1997; 201:183-188). […] Upon sacrifice, the number and identity of the cells accumulating in the peritoneum was determined by FACS, and plasma samples were taken for quantification by Liquid Chromatography-Tandem Mass Spectrometry. Three days after thioglycollate injection 95% of the cells in the peritoneum were macrophages (F4/80 positive, GR-1 negative cells) (FIG. 26B).

human Neutrophils = assay: Chemotaxis assay of human neutrophils; settings: 5 μg/ml; towards LPS or 10% FBS/MCP-3
Excerpt: Data are mean±SD from 3 different experiments performed in triplicates. […] Data are mean±SD from 4 different donors tested in triplicates.

TLR7 = TLR7 (Mus musculus, UniProt P58681); settings: mouse BMDCs; R848; 1.7, 8.5 or 17 μM
[4] = test system: phosphorylation of Akt, MEK1/2, ERK1/2 and p38 in human monocytes; settings: stimulation with MCP-1, MIP-1α or RANTES; shown in WO 2011/083469; cited from earlier work
CD4+ T-cells = assay: Chemotaxis assay of CD4+ T-cells; settings: 5 μg/ml; RANTES (100 ng/ml) and SDF-1α (50 ng/ml)
Experimental: Human monocytes (CD14+ cells) and CD4+ T-cells were isolated from whole blood of healthy donors. Following PBMCs separation from whole blood using Ficoll-Paque and leucosep tubes (Greiner Bio-One), CD14+/CD4+ cells were separated using specific anti-CD14/anti-CD4 micro beads, respectively (Miltenyi Biotech). Purity of the isolated populations was validated using specific antibodies by FACS analysis. […] For chemo-attraction of monocytes, RANTES (100 ng/ml), MIP-1α (50 ng/ml) or MCP-1 (50 ng/ml) were dissolved in 0.5% fetal bovine serum(FBS)/RPMI-1640 medium and placed at the lower chamber of QCM™ 24-well migration assay plate (Corning-Costar; 5 μm pores). For chemo-attraction of CD4+ cells, 0.5% FBS/RPMI-1640 solution containing RANTES (100 ng/ml) and SDF-1α (50 ng/ml) was used, using the same plate setting. Migration assay was conducted by seeding 300,000 treated cells in the upper chamber, followed by incubation of 3-4 hours. Subsequently, the number of cells which migrated to the medium in the lower compartment was determined by FACS.

[5] = test system: phosphorylation of Akt, MEK1/2, ERK1/2 and p38 in human monocytes; assay: Chemokine-induced signaling in human monocytes, Western blot
Excerpt: Untreated cells were used as reference for MCP-1 activation. Following treatment, cells were washed twice, harvested with lysis buffer and analyzed by SDS-PAGE. […] Alpha Tubulin levels serve as loading control.

C57B6J WT mice = assay: Thioglycollate-induced peritonitis model (monocyte migration in vivo); set-up: species or system mouse; settings: oral
Experimental: After 5 days of administration, thioglycollate was injected to the peritoneal cavity of the mice to induce monocyte migration. Four days later, mice were sacrificed and migrating cells were collected from the peritoneum and counted by hemocytometer. Data are mean±SE, collected from 3-4 independent experiments. […] FIG. 26B is a FACS analysis. To characterize their identity, migrating cells were stained with the macrophage marker F4/80 and the neutrophils marker GR-1.
as §1

monocytes = assay: Monocyte adhesion assay (TNFα-stimulated HUVEC); assay type: cell-based, human; settings: 1-10 μg/ml VB-201; compared to the solvent control
Experimental: Matrix plates were pre-seeded with HUVEC and subjected to 4 hour stimulation with 10 ng/ml TNFα to induce expression of adhesion molecules. Freshly isolated monocytes were stained for 30 minutes with 5 µM calcein AM (Invitrogen) in serum free RPMI and then washed twice with PBS to remove excess dye. […] 10^5 stained monocytes were loaded per well into 96-well dishes and allowed to adhere for 15 minutes. Following 4 washes with PBS, adherent monocyte intensity was read using FLUOROSKAN Ascent FL device using excitation at 485 nm and emission at 538 nm.
Next, we examined whether VB-201 or oxidized PAPC treatment of monocytes affects their interaction with endothelial cells. HUVEC were plated in 96-wells and treated with TNFαc to induce expression of adhesion molecules. […] Following extensive washes, adherent monocytes were quantified by fluorescence.

THP-1 cells [6] = assay: AKT and ERK pathway activation in THP-1 cells, Western blot; settings: 8.5 μM VB-201, 20 min
Experimental: THP-1 cells were incubated for 16 hrs in RPMI-1640 medium supplemented with 0.5% FBS and 1% Pen/Strep/Glutamine to reduce basal signaling readouts. […] Stimulation with 100 μM GTP-γ-s, an activator of G-proteins, was performed for 2, 5 or 15 minutes. Cells were harvested and analyzed by SDS-PAGE. […] Total ERK1/2 levels serve as loading control.
The THP1 or HEK293 cell lines were grown in medium supplemented with 0.5% FBS and 1% Pen/Strep/Glutamine. […] Cells were washed twice and harvested with lysis buffer and analyzed by SDS-PAGE. […] Alpha Tubulin levels serve as loading control.
THP-1 cells were incubated for 16 hrs in RPMI-1640 medium supplemented with 0.5% FBS and 1% Pen/Strep/Glutamine to reduce basal signaling readouts. […] Stimulation with 30 μg/ml of CRP, activator the CD32 and CD64 receptors, was performed for 2, 5 or 15 min. Cells were harvested and analyzed by SDS-PAGE. […] Total ERK1/2 levels serve as loading control.

[7] = 5 μg/ml VB-201, MCP-1 and MCP-3-stimulated cells

TLR7, sequence (P58681 27-1050): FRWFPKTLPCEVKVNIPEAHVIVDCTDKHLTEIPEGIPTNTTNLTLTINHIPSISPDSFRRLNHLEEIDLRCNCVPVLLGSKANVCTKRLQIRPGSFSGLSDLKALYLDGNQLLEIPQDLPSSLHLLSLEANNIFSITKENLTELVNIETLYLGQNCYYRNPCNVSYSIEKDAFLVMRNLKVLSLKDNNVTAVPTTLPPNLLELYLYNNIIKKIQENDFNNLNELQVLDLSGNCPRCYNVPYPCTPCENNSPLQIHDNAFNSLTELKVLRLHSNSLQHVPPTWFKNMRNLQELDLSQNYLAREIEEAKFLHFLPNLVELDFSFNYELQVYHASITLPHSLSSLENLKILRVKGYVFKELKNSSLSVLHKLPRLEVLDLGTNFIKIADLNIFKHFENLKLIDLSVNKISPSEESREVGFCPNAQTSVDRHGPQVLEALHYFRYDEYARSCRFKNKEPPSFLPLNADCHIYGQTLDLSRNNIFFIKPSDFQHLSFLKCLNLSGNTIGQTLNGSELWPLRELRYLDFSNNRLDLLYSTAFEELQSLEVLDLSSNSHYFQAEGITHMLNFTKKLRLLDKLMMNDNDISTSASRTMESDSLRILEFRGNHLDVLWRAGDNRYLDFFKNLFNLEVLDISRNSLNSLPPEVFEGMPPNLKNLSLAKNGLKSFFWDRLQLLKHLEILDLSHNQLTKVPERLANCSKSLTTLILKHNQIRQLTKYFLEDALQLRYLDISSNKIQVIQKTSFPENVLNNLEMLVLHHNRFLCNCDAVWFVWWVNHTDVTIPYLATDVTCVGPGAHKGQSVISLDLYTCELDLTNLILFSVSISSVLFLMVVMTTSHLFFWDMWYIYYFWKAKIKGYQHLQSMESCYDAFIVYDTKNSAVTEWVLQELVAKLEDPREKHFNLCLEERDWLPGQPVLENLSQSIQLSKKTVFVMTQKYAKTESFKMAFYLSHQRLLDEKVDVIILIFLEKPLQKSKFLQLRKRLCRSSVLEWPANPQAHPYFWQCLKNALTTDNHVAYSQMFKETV

CCCCCCCCCCCCCCCCOC[C@H](COP(=O)([O-])OCC[N+](C)(C)C)OCCCCC(=O)O [VB-201, (R)-1-hexadecyl-2-(4′-carboxyl)butyl-sn-glycero-3-phosphocholine]
effect of Wortmannin, Rapamycin and GW5074 on chemotaxis of THP-1 cells with added VB-201 (THP-1 cells [1]; VB-201 8.5 μM): further enhanced | in vitro migration of THP-1 cells (THP-1 cells [1]; pretreatment 30 minutes, 2 or 5 μg/ml): significantly inhibited in vitro migration of THP-1 cells in a dose-dependent manner | C-reactive protein-induced chemotaxis of human monocytes ([2]; 8.5 μM VB-201, 30 min, 50 ug/ml CRP, 3.5 hours, p<0.01): inhibit chemotaxis induced by CRP | reduction of monocyte chemotaxis towards MCP-1 and RANTES (50 ng/ml each) ([2]; 30 min pre-incubation, PC 5 μg/ml, partially oxidized PAPC 40 μg/ml, PGPC 5 μg/ml, VB-201 5 μg/ml): profound inhibition of monocyte chemotaxis | reduction of monocyte migration, MCP-1 as chemoattractant ([2]; VB-201 5 μg/ml, MCP-1 50 ng/ml, compared to solvent control): approximately 80% | reduction of monocyte migration, MIP-1α as chemoattractant ([2]; VB-201 5 μg/ml, MIP-1α 50 ng/ml, compared to solvent control): ~68% | reduction of monocyte migration, RANTES as chemoattractant ([2]; VB-201 5 μg/ml, RANTES 100 ng/ml, compared to solvent control): ~72% | monocyte chemotaxis towards the compound (cell attractant in lower chamber) ([2]; data not shown): no monocyte chemotaxis towards VB-201 occurred | inhibition of monocyte migration towards HUVEC growth medium ([2]; dose of 5 μg/ml): about 60% | monocyte migration towards HUVEC growth medium ([2]; escalating doses): reduced the number of migrating cells in a dose-dependent fashion | VB-201 in mice plasma ([3]; 0.4 mg/kg): 0.8 ± 0.3 µmol/L | VB-201 plasma level ([3]; 4 mg/kg): 8.5 ± 1.5 µmol/L | chemotaxis of human Neutrophils (human Neutrophils): no effect on chemotaxis | p38 phosphorylation following activation of TLR7 (TLR7): no apparent effect | ERK1/2 phosphorylation and MEK1/2 phosphorylation [4]: inhibition by VB-201 of ERK1/2 phosphorylation and MEK1/2 phosphorylation | CD4 cell chemotaxis (CD4+ T-cells): unable to find any inhibition | ERK1/2 phosphorylation in stimulated monocytes ([5]; 50 ng/ml RANTES): inhibited ERK1/2 phosphorylation | phosphorylation levels of ERK1/2 ([5]; 5 μg/ml VB-201, Fractalkine-stimulated cells): considerable reduction | phosphorylation levels of Akt [5, 7]: considerable reduction | phosphorylation levels of ERK1/2 [5, 7]: considerable reduction | phosphorylation levels of MEK1/2 [5, 7]: considerable reduction | phosphorylation levels of p38 [5, 7]: but not in phosphorylation levels of p38 | ERK1/2 phosphorylation in monocytes pre-stimulated with MCP-1 overnight ([5]; 8.5 μM VB-201 for 2, 5 or 15 min, 10 ng/ml MCP-1, 16 hrs): reduction of ERK1/2 phosphorylation in starting at 5 min | inhibition of peritoneal macrophage accumulation (C57B6J WT mice; 0.04 mg/kg/day): no inhibitory effect | inhibition of peritoneal macrophage accumulation (C57B6J WT mice; 0.4 mg/kg): ~25% | reduction in the number of peritoneal macrophages relative to PBS-treated animals (C57B6J WT mice; 4 mg/kg): > 60% | monocyte adhesion to HUVEC (monocytes): had no effect on their adhesion to HUVEC | phospho-AKT(Ser473) levels (THP-1 cells [6]; 30 μg/ml CRP): reduction in phospho-ERK1/2 and phospho-AKT(Ser473) levels | phospho-ERK1/2 levels (THP-1 cells [6]; 30 μg/ml CRP): reduction in phospho-ERK1/2 and phospho-AKT(Ser473) levels | phospho-AKT(Ser473) levels (THP-1 cells [6]; 100 μM GTP-γ-s): reduction in phospho-ERK1/2 and phospho-AKT (Ser473) levels | phospho-ERK1/2 levels (THP-1 cells [6]; 100 μM GTP-γ-s): reduction in phospho-ERK1/2 and phospho-AKT (Ser473) levels | EGF-induced ERK1/2 phosphorylation (THP-1 cells [6]; EGF 200 ng/ml): inhibition of ERK1/2 phosphorylation in the THP-1 monocytic cell line

— patent US20150320773A1, “TREATMENT OF INFLAMMATION” (Vascular Biogenics Ltd., priority 2011, published 2015)
